The structures appear in SMILES notation.

1 compound from US8784887B2, “Pharmaceutical preparation of N-[5-(aminosulfonyl)-4-methyl-1,3-thiazol-2-yl]-N-methyl-2-[4-(2-pyridinyl)phenyl]acetamide” (Aicuris GmbH & Co. KG, priority 2005, dated 2014) can be followed below.

The data set in a line: release experiments with pure active compound (I) and with state-of-the-art preparations. The class given is physicochemical. The conditions noted are these: release experiments using pure active compound (I). The text has this: If those preparations known from the state of the art are applied to the active compound (I) described here, it has unexpectedly been shown that there is no immediate release of the active compound but that there is a markedly delayed release which is therapeutically not desired.

For the compound `Cc1nc(N(C)C(=O)Cc2ccc(-c3ccccn3)cc2)sc1S(N)(=O)=O` [active compound (I), N-[5-(Aminosulfonyl)-4-methyl-1,3-thiazol-2-yl]-N-methyl-2-[4-(2-pyridinyl)phenyl]acetamide], the “release behavior of pure active compound (in words)” value is recorded as ““clumping” or a gel formation”.
